Test [1] can be described thus: Inhibition of Plasmodium falciparum recombinant GluPho measured for 20 to 30 mins by multiwell plate reader method.
Test [2] has as its target T1, Glucose-6-phosphate 1-dehydrogenase (Homo sapiens, UniProt P11413). Description: Binding affinity to human G6PD.
Test [3] can be described thus: Binding affinity to Plasmodium falciparum GluPho.
Test [4] can be described thus: Selectivity index, ratio of Ki for human G6PD to Ki for Plasmodium falciparum GluPho.
A further test has as its system Plasmodium falciparum. In words: Antimalarial activity against Plasmodium falciparum 3D7 incubated for 48 hrs followed by [3H]-hypoxanthine addition measured after 24 hrs by microdilution method. It is filed as functional, organism-based. (In general: Broth dilution looks for growth in wells or tubes with falling amounts of substance.)
Test [5] in a line: Inhibition of Trypanosoma cruzi G6PD expressed in Escherichia coli BL21 (DE3) by G6PDH-diaphorase-resorufin coupled assay.
The nature of test [6]: Inhibition of Trypanosoma cruzi G6PD.
Test [7] deals with T1, Glucose-6-phosphate 1-dehydrogenase. Description: Binding affinity to G6PD (unknown origin) assessed as Gibbs free energy.
Test [8] can be described thus: Inhibition of Plasmodium falciparum GluPho.
Test [9] in a line: Inhibition of Plasmodium vivax G6PD.
The target of test [10] is T1, Glucose-6-phosphate 1-dehydrogenase. In words: Inhibition of human C-terminal His tagged G6PD overexpressed in Escherichia coli BL21.
The subject of a further test is Trypanosoma cruzi. Description: Trypanocidal activity against Trypanosoma cruzi assessed as lethal dose. Particulars: read-out: LD50 (the source's name). It is filed as functional.
A short description of test [11]: Antiproliferative activity against human MCF10AT1 cells. The format is functional, cell-based.
The target in test [12] is T1, Glucose-6-phosphate 1-dehydrogenase. In words: Inhibition of human G6PD.

T1 sequence (P11413 whole entry): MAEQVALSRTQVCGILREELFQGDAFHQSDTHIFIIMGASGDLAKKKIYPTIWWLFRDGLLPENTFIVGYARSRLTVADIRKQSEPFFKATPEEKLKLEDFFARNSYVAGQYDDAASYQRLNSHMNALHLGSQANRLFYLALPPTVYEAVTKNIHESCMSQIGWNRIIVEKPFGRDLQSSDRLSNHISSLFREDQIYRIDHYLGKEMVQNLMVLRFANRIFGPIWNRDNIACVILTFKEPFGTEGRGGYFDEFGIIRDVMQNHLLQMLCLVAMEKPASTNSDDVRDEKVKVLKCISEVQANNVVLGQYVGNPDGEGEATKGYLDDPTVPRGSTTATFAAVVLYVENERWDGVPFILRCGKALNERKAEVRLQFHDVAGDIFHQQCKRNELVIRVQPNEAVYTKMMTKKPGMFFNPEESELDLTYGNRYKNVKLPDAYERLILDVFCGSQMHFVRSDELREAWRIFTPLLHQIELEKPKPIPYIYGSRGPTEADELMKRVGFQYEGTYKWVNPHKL

A word on the IC50: it is the concentration at which inhibition is half-maximal. Consider `COc1ccc(-c2ccc(C=C3C(=O)NC(=O)NC3=O)o2)c([N+](=O)[O-])c1`, for which the concentration for half-maximal inhibition (IC50) in test [1] was determined as 4.6 µM.
The term Ki denotes the dissociation constant of the complex between target and ligand, obtained from inhibition or displacement. For `CO[C@H]1O[C@H](CS(=O)(=O)CCNC(=N)N)[C@@H](O)[C@H](O)[C@H]1O`, the Ki in test [2] came to 16.8 µM; in test [3], 32.4 µM. In addition, the Ratio Ki in [4] is 0.5.
In the case of `CCN1CCC[C@@H]1CNC(=O)c1ccc2c(c1)NC(=O)/C(=C/c1ccccc1F)S2`, in the test with Plasmodium falciparum, the IC50 was 2.3 µM.
On to `CCCCCCCn1cnc2sc(C(N)=O)c(C)c2c1=O`, for which the IC50 in test [5] stood at 4.9 µM.
Turning to `Cc1ccc(Nc2ncc3c(n2)CCCC3=O)cc1`, the IC50 in test [6] was 10 µM; in [5], 0.48 µM.
`Cc1cccc(Nc2ncc3c(n2)CCCC3=O)c1` yielded an IC50 in [6] of 0.63 µM.
`O=C(Nc1ccc(Cl)cc1)Nc1ncc([N+](=O)[O-])s1`: in test [7], the deltaG was -28.9 kJ/mol.
`CO[C@H]1O[C@H](CS(=O)(=O)CCCNC(=N)N)[C@@H](O)[C@H](O)[C@H]1O` registered a Ki in test [3] of 42.9 µM. For the same compound, the Ratio Ki in [4] is 0.5.
Consider `CO[C@H]1O[C@H](CSCCN)[C@@H](O)[C@H](O)[C@H]1O`, for which the Ratio Ki in test [4] is 26.
Compound `O=C(Cn1ccnc1[N+](=O)[O-])NCc1ccccc1` [BENZNIDAZOLE] had an IC50 in test [6] of 8.5 µM.
Take `O=C1NC(=O)N(c2ccc(O)cc2)C(=O)/C1=C\c1ccc(-c2ccccc2[N+](=O)[O-])o1`: the IC50 in test [1] was determined as 19.9 µM.
Take `CCN1CCC[C@@H]1CNC(=O)c1ccc2c(c1)NC(=O)c1cccc(C)c1S2`: the IC50 was found to be 0.19 µM in [8] and 15.3 µM in test [9].
Regarding `CO[C@H]1O[C@H](CSCCC#N)[C@@H](O)[C@H](O)[C@H]1O`, the Ki in test [3] was 259 µM. Further, in [4], the Ratio Ki is more than 0.8.
The matching figures for `CO[C@H]1O[C@H](CS(=O)(=O)CCCN)[C@@H](O)[C@H](O)[C@H]1O`: 34.4 µM and 1.
The compound `CO[C@H]1O[C@H](CS(=O)(=O)CCC#N)[C@@H](O)[C@H](O)[C@H]1O` displayed a Ki in [3] of 68.8 µM. For the same compound, the Ratio Ki in test [4] is more than 2.9.
The matching figures for `CO[C@H]1O[C@H](CSCCNC(=N)N)[C@@H](O)[C@H](O)[C@H]1O`: 45.6 µM and more than 4.4.
`COc1cc(/C=C2\C(=O)N(c3nc(-c4ccc(Cl)cc4)cs3)N=C2C)cc(OC)c1OC`: the half-inhibitory concentration (IC50) in [8] turned out to be 1.7 µM; in test [10] it was 0.6 µM.
As to `Cc1cccc(N2C(=O)NC(=O)/C(=C/c3ccc(-c4ccc([N+](=O)[O-])cc4C)o3)C2=O)c1`, the IC50 in test [1] was 5.1 µM.
With `C[C@]12CC[C@H](O)C[C@@H]1CC[C@@H]1[C@@H]2CC[C@]2(C)C(=O)[C@H](Br)C[C@@H]12` [16.ALPHA.-BROMOEPIANDROSTERONE], the midpoint of inhibition in test [6], the IC50, lay at 0.086 µM. In the test with Trypanosoma cruzi, the LC50 is 12 µM.
As to `CC(C)(C)c1ccc(Oc2ccc(N)cn2)cc1` [LIMANTRAFIN], the results for the IC50 (in test [1]; with Plasmodium falciparum) were 1.5 µM and 0.97 µM, respectively.
Take `CO[C@H]1O[C@H](CS(=O)(=O)CCN)[C@@H](O)[C@H](O)[C@H]1O`: the Ki was more than 400 µM in test [2] and 22.8 µM in test [3]. The Ratio Ki in test [4] was more than 18.
Turning to `COc1ccc(N2CCN(c3nc(C)c4c(n3)CCCC4=O)CC2)cc1`, the half-inhibitory concentration (IC50) in [5] is 0.61 µM.
In the case of `Cc1ccc(C)c(S(=O)(=O)Nc2ccc(O)c3ccccc23)c1`, the IC50 in test [1] amounted to 22 µM; with Plasmodium falciparum it was 5.3 µM; in [10] it was 0.2 µM; in [11], 25 µM.
As for `O=C1Nc2ccc(Br)cc2/C1=C1/SC(=S)N(C(Cc2ccccc2)C(=O)O)C1=O` (stereo unspecified), the 50% inhibitory concentration (IC50) in test [10] was 3.1 µM.
Turning to `O=S(=O)(Nc1ccc(O)c2ccccc12)c1ccc(F)cc1`, the IC50 is 30 µM in test [1] and 3.9 µM in the test on Plasmodium falciparum.
For `CO[C@H]1O[C@H](CSCCCN)[C@@H](O)[C@H](O)[C@H]1O`, in [3], the inhibition constant (Ki) worked out at 289 µM. Also, the Ratio Ki in [4] was determined as 0.4.
With `COc1ccc(-n2c(-c3cccnc3)nc3ccccc3c2=O)cc1`, the IC50 was 7.6 µM in test [1], 3 µM in [10] and 3 µM in test [12].
Turning to `O=c1c2ccccc2nc(-c2cccnc2)n1-c1ccc(Br)cn1`, the half-maximal inhibitory concentration (IC50) stood at 4.5 µM in test [1], 2.6 µM in [10] and 2.6 µM in test [12].
